Data published in patent publication US10501516B2, “Peptide compound” (TAKEDA PHARMACEUTICAL COMPANY LIMITED, priority 2016, dated 2019).
Square brackets hold non-standard residues; d marks the D form. Side chains are listed from the residue outwards. Peptide text beside a SMILES is read from it. * marks the point of attachment. Phe(2-F) = N[C@@H](Cc1ccccc1F)C(=O)O; NMeY = CN[C@@H](Cc1ccc(O)cc1)C(=O)O; Palmitoyl = CCCCCCCCCCCCCCCC(=O)*; αMeF = C[C@](N)(Cc1ccccc1)C(=O)O; Iva = CC[C@](C)(N)C(=O)O; Aib = CC(C)(N)C(=O)O

Experiments:
human GLP-1R = molecular target: T1, human GLP-1R (Homo sapiens, UniProt P43220); assay: Reporter assay of human GLP-1R gene (agonist activity, intracellular cAMP as index); format: cell-based; settings: Cre-luc reporter, hGLP-1R/Crel cells (CHO-K1), 4 hours
T1 construct: expressed in transfected cells; host or cells: CHO-K1 Cre-luc reporter cells (hGLP-1R/Crel cells)
T1 sequence (P43220 24-463): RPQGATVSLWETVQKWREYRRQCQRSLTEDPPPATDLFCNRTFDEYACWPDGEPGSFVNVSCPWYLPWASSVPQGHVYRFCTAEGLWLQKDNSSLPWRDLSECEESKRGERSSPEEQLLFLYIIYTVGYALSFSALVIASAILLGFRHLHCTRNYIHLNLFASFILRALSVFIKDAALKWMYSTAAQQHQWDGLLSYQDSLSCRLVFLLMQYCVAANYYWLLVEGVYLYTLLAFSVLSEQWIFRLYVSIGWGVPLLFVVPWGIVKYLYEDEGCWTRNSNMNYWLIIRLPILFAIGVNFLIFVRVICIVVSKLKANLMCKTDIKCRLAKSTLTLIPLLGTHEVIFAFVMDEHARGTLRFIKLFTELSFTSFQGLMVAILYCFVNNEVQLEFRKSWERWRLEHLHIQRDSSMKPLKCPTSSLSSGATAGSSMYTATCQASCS
Description: Evaluation of Agonist Activity Against Human NPY2R, Human GIPR, and Human GLP-1R Using Change in Intracellular cAMP Concentration as Index
The human GLP-1R gene having a sequence identical to the sequence of GenBank Accession No. NM_002062 was cloned into pIRESneo3 vector (Clontech Laboratories, Inc.) to prepare hGLP-1R/pIRESneo3. This vector was introduced to the Cre-luc reporter cells obtained in (1) to obtain transformants. Next, a cell line induced to express luciferase, i.e., hGLP-1R/Crel cells, were selected from the obtained transformants by the addition of human GLP-1(7-37) peptide.
The hGIPR/CRE-LUC/CHO-K1 cells or the hGLP-1R/Crel cells were inoculated at a cell density of 25 μL/well (5,000 cells/well) to a 384-well white plate (Corning, 3570), and cultured overnight in Ham F12 medium containing 10% fetal bovine serum, 100 U/mL penicillin and 100 μg/mL streptomycin in a CO2 incubator of 37° C. On the next day, a medium containing a test compound was added at a concentration of 5 μL/well to the cells, and the resultant cells were incubated for 4 hours in a CO2 incubator of 37° C. to give the final concentration of 1 μM. SteadyGlo (Promega) was added thereto at a concentration of 30 μL/well, and the mixture was shaken with light shielded. After 30 minutes, the luciferase activity was measured using a plate reader Envision (PerkinElmer). For the GIPR agonist activity, the luciferase activity in the presence of 10 μM GIP was defined as 100%, and the luciferase activity from the addition of DMSO instead of the test compound was defined as 0%. The GIPR agonist activity was calculated with a rise in intracellular cAMP concentration as an index.
For the GLP-1R agonist activity, assay similar to above was conducted using the hGLP-1R/Crel cells. The luciferase activity in the presence of 10 μM GLP-1 was defined as 100%, and the luciferase activity from the addition of DMSO instead of the test compound was defined as 0%. The GLP-1R agonist activity was calculated with a rise in intracellular cAMP concentration as an index.

human GIPR = molecular target: T2, human GIPR (Homo sapiens, UniProt P48546); assay: Reporter assay of human GIPR gene (agonist activity, intracellular cAMP as index); format: cell-based; settings: Cre-luc reporter, hGIPR/CHO-K1 cells, 4 hours
T2 construct: expressed in transfected cells; host or cells: CHO-K1 Cre-luc reporter cells (hGIPR/CHO-K1, also called hGIPR/CRE-LUC/CHO-K1)
T2 sequence (P48546 22-466): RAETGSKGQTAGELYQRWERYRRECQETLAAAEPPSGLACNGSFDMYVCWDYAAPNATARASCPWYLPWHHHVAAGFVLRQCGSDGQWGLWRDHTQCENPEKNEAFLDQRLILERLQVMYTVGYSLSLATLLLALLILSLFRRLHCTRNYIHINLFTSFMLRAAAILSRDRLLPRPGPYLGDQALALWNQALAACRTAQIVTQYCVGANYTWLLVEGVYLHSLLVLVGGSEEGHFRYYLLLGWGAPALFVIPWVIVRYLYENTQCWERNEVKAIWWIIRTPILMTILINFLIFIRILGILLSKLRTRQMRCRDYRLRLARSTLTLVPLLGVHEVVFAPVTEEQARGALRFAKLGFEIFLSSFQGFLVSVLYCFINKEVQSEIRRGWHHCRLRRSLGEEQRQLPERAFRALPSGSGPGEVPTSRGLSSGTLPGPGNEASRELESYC

male C57BL/6J mouse = assay: Evaluation of feeding suppressive action in mice; format: in vivo; settings: 30 nmol/kg s.c. once a day for 3 days; 3-days cumulative food consumption vs solvent control
In short: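 Male C57BL/6J mice, 8-9 weeks, ad libitum fed, given compound (30 or 100 nmol/2 mL in 10% DMSO saline) s.c. at 2 mL/kg once daily for 3 days. Cumulative 3-day food consumption measured by weighing; suppression rate (%) calculated relative to vehicle controls.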

Structure (SMILES) | EC50 (human GLP-1R) [nM] | EC50 (human GIPR) [nM] | Rate of feeding suppression (%) (male C57BL/6J mouse)
CCCCCCCCCCCCCCCC(=O)NCC(=O)NCC(=O)NCC(=O)NCC(=O)NCCCC[C@H](NC(=O)[C@H](CC(=O)O)NC(=O)[C@H](CO)NC(=O)[C@@H](NC(=O)[C@](C)(Cc1ccccc1)NC(=O)[C@@H](NC(=O)CNC(=O)[C@H](CCC(=O)O)NC(=O)C(C)(C)NC(=O)[C@@H](N)Cc1ccc(O)cc1)[C@@H](C)O)[C@@H](C)O)C(=O)N[C@@H](CO)C(=O)N[C@@H](CCCCN)C(=O)NC(C)(C)C(=O)N[C@@H](CC(C)C)C(=O)N[C@@H](CC(=O)O)C(=O)N[C@@H](CCCCN)C(=O)N[C@@H](CCC(N)=O)C(=O)N[C@@H](CCCNC(=N)N)C(=O)N[C@@H](CCC(N)=O)C(=O)N[C@@](C)(CC)C(=O)N[C@@H](CCC(=O)O)C(=O)N[C@@H](Cc1ccccc1)C(=O)N[C@H](C(=O)N[C@@H](CCCNC(=N)N)C(=O)N[C@@H](Cc1c[nH]cn1)C(=O)N[C@@H](CC(C)C)C(=O)N[C@@H](CC(C)C)C(=O)N[C@@H](CC(N)=O)C(=O)N[C@@H](CCCCN)C(=O)NC(C)(C)C(=O)N[C@H](C(=O)N[C@@H](CCCNC(=N)N)C(=O)N[C@@H](CCC(N)=O)C(=O)N[C@@H](CCCNC(=N)N)C(=O)N[C@@H](Cc1ccc(O)cc1)C(N)=O)[C@@H](C)O)C(C)C [Example 23] (H-Y[Aib]EGT[αMeF]TSDK([Gly-Gly-Gly-Gly-Palmitoyl])SK[Aib]LDKQRQ[Iva]EFVRHLLNK[Aib]TRQRY-NH2) | 0.13 | 0.091 | –
CCCCCCCCCCCCCCCC(=O)NCC(=O)NCC(=O)NCC(=O)NCC(=O)NCCCC[C@H](NC(=O)[C@H](CC(=O)O)NC(=O)[C@H](CO)NC(=O)[C@@H](NC(=O)[C@](C)(Cc1ccccc1)NC(=O)[C@@H](NC(=O)CNC(=O)[C@H](CCC(=O)O)NC(=O)C(C)(C)NC(=O)[C@H](Cc1ccc(O)cc1)NC)[C@@H](C)O)[C@@H](C)O)C(=O)NC(C)(C)C(=O)N[C@H](C(=O)NC(C)(C)C(=O)N[C@@H](CC(C)C)C(=O)N[C@@H](CC(=O)O)C(=O)N[C@@H](CCCCN)C(=O)N[C@@H](CCC(N)=O)C(=O)N[C@@H](CCCNC(=N)N)C(=O)N[C@@H](CCC(N)=O)C(=O)N[C@@](C)(CC)C(=O)N[C@@H](CCC(=O)O)C(=O)N[C@@H](Cc1ccccc1)C(=O)N[C@H](C(=O)N[C@@H](CCCNC(=N)N)C(=O)N[C@@H](Cc1c[nH]cn1)C(=O)N[C@@H](CC(C)C)C(=O)N[C@@H](CC(C)C)C(=O)N[C@@H](CC(N)=O)C(=O)N[C@@H](CCCCN)C(=O)NC(C)(C)C(=O)N[C@H](C(=O)N[C@@H](CCCNC(=N)N)C(=O)N[C@@H](CCC(N)=O)C(=O)N[C@@H](CCCNC(=N)N)C(=O)N[C@@H](Cc1ccccc1F)C(N)=O)[C@@H](C)O)C(C)C)[C@@H](C)CC [Example 5] (H-[NMeY][Aib]EGT[αMeF]TSDK([Gly-Gly-Gly-Gly-Palmitoyl])[Aib]I[Aib]LDKQRQ[Iva]EFVRHLLNK[Aib]TRQR[Phe(2-F)]-NH2) | 0.13 | – | –
CCCCCCCCCCCCCCCC(=O)NCC(=O)NCC(=O)NCC(=O)NCC(=O)NCCCC[C@H](NC(=O)[C@H](CC(=O)O)NC(=O)[C@H](CO)NC(=O)[C@@H](NC(=O)[C@](C)(Cc1ccccc1)NC(=O)[C@@H](NC(=O)CNC(=O)[C@H](CCC(=O)O)NC(=O)C(C)(C)NC(=O)[C@H](Cc1ccc(O)cc1)NC)[C@@H](C)O)[C@@H](C)O)C(=O)NC(C)(C)C(=O)N[C@H](C(=O)NC(C)(C)C(=O)N[C@@H](CC(C)C)C(=O)N[C@@H](CCC(=O)O)C(=O)N[C@@H](CCCCN)C(=O)N[C@@H](CCC(N)=O)C(=O)N[C@@H](CCCNC(=N)N)C(=O)N[C@@H](CCC(N)=O)C(=O)N[C@@](C)(CC)C(=O)N[C@@H](CCC(=O)O)C(=O)N[C@@H](Cc1ccccc1)C(=O)N[C@H](C(=O)N[C@@H](CCCNC(=N)N)C(=O)N[C@@H](Cc1c[nH]cn1)C(=O)N[C@@H](CC(C)C)C(=O)N[C@@H](CC(C)C)C(=O)N[C@@H](CC(N)=O)C(=O)N[C@@H](CCCCN)C(=O)NC(C)(C)C(=O)N[C@H](C(=O)N[C@@H](CCCNC(=N)N)C(=O)N[C@@H](CCC(N)=O)C(=O)N[C@@H](CCCNC(=N)N)C(=O)N[C@@H](Cc1ccc(O)cc1)C(N)=O)[C@@H](C)O)C(C)C)[C@@H](C)CC [Example 33] (H-[NMeY][Aib]EGT[αMeF]TSDK([Gly-Gly-Gly-Gly-Palmitoyl])[Aib]I[Aib]LEKQRQ[Iva]EFVRHLLNK[Aib]TRQRY-NH2) | 0.13 | – | −58.4
